The results in this text go back to ChEMBL document CHEMBL5346969 (J Med Chem, 2023).

Calls of active or inactive are those of the source. The rule behind the calls is not given here.

Data set [1] has as its target T1, Phospholipid hydroperoxide glutathione peroxidase GPX4 (Homo sapiens) (UniProt P36969).
T1 sequence (whole entry): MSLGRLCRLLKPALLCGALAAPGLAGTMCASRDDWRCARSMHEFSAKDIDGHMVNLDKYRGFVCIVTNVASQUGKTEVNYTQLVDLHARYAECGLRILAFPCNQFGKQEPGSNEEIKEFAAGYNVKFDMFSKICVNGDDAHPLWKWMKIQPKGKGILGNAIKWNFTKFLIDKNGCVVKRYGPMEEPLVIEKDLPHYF
The experiment in a line: Binding affinity to GPX4 (unknown origin) at Cys66 residue assessed as change in mass of single charged y3+ ion at 100 uM incubated for 1.5 hrs by SDS-PAGE based LC-MS/MS analysis.

The nature of data set [2]: Clearance in rat at 10 mg/kg, ip and measured upto 24 hrs by LC-MS/MS analysis. Format: ADME, organism-based. Particulars: in vivo.
Data set [3] has as its target T1, Phospholipid hydroperoxide glutathione peroxidase GPX4 (Homo sapiens). The experiment in a line: Binding affinity to GPX4 (unknown origin) at Cys66 residue assessed as change in mass of single charged y5+ ion at 100 uM incubated for 1.5 hrs by SDS-PAGE based LC-MS/MS analysis.
The nature of data set [4]: Cmax in rat at 10 mg/kg, ip and measured upto 24 hrs by LC-MS/MS analysis. Particulars: in vivo. It counts as ADME, organism-based. Details: time < 24 hrs, dose 10 mg/kg, route ip.
Data set [5] concerns the target T1, Phospholipid hydroperoxide glutathione peroxidase GPX4 (Homo sapiens). Description: Binding affinity to GPX4 (unknown origin) at Cys66 residue assessed as change in mass of single charged y2+ ion at 100 uM incubated for 1.5 hrs by SDS-PAGE based LC-MS/MS analysis.
In data set [6] the test system is MDA-MB-231. The experiment in a line: Induction of ferroptosis in siRNA mediated GPX4 knockdown human MDA-MB-231 cells with assessed as change in FTH1 protein expression level at 20 nM incubated for 8 hrs by Western blot analysis. Format: functional, cell-based.
The target in data set [7] is T1, Phospholipid hydroperoxide glutathione peroxidase GPX4 (Homo sapiens). Description: Binding affinity to GPX4 (unknown origin) at Cys66 residue assessed as change in mass of single charged b4+ ion at 100 uM incubated for 1.5 hrs by SDS-PAGE based LC-MS/MS analysis.
Data set [8] relates to MDA-MB-231. The experiment in a line: Induction of ferroptosis in siRNA mediated GPX4 knockdown human MDA-MB-231 cells with assessed as intracellular lipid peroxidase at 20 nM incubated for 8 hrs by C11-BODIPY-581/591 staining based confocal laser microscopy. It counts as functional, cell-based.
Data set [9] deals with T1, Phospholipid hydroperoxide glutathione peroxidase GPX4 (Homo sapiens). The experiment in a line: Binding affinity to GPX4 in human MDA-MB-231 cells assessed as reduction in thermal stability at 1 uM incubated for 2 hrs by CESTA analysis. It counts as cell-based.
Data set [10] has the same target. Description: Binding affinity to GPX4 (35 to 48 residues) (unknown origin) at Sec46 residue assessed as increase in mass of single charged y3+ ion at 100 uM incubated for 1.5 hrs by SDS-PAGE based LC-MS/MS analysis.

One may read the Cmax as the maximum level reached in the sampled fluid or tissue.

For `COc1cc(N(C(=O)CCl)c2ccc3c(c2)OCCO3)cc(OC)c1F`, the outcome (in [1]; in data set [3]; in data set [5]; in the data set on MDA-MB-231 [6]; in [7]) was inactive. This molecule returned a CL in data set [2] of 13.8 mL/min/kg. Besides, the Cmax in data set [4] was found to be 5205 ng/mL. Moreover, the result (with MDA-MB-231 [8]; in data set [9]; in [10]) was Active.
